Experimental data reported in ChEMBL document CHEMBL5346952, “Dimer Peptide Ligands of Vascular Endothelial Growth Factor: Optimizing Linker Length for High Affinity and Antiangiogenic Activity” (J Med Chem, 2023).
Starred links: 1 amine or outer side, 2 acyl side, 3 side chain; linkers in the order of their positions; H or OH if unused. Positions of bridges follow the written chain, without caps; N, C: chain ends. Residues, ends and D or L forms follow the SMILES beside them. Chains are numbered I, II in the order given. X1 = O=C(CCOCCOCCOCCOCCOCCOCCOCCOCCOCCOCCOCCOCCOCCOCCOCCOCCOCCOCCOCCOCCOCCOCCOCCOCCOCCC(=O)[*:2])[*:1]

Legend:
[1] = target: T1, Vascular endothelial growth factor A, long form (Homo sapiens, UniProt P15692); assay: Binding affinity to human VEGF (13 to 107 residues) expressed in Escherichia coli Rosetta (DE3) cells assessed as dissociation constant at 37 degreeC by isothermal titration calorimetry analysis
T1 sequence (P15692 whole entry): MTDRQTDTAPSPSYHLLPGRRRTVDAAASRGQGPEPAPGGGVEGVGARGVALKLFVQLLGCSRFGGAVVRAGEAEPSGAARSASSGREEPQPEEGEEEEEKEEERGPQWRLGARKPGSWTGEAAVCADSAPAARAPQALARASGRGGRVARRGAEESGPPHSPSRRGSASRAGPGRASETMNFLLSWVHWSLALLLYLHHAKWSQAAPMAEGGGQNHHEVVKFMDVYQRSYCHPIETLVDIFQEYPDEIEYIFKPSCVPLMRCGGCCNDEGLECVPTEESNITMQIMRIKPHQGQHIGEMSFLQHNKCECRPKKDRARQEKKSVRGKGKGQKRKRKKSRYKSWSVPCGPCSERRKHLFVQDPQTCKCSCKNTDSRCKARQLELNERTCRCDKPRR

[2] = target: T1, Vascular endothelial growth factor A, long form; assay: Binding affinity to human VEGF (13 to 107 residues) expressed in Escherichia coli Rosetta (DE3) cells assessed as dissociation constant at 20 degreeC by isothermal titration calorimetry analysis
[3] = target: T2, Vascular endothelial growth factor A, long form (Homo sapiens) (UniProt P15692); assay: Binding affinity to human VEGF (13 to 107 residues) expressed in Escherichia coli Rosetta (DE3) cells assessed as change in enthalpy at 37 degreeC by direct titration based isothermal titration calorimetry analysis
T2 sequence (whole entry): T1 sequence (P15692 whole entry)

[4] = target: T2, Vascular endothelial growth factor A, long form (Homo sapiens); assay: Binding affinity to human VEGF (13 to 107 residues) expressed in Escherichia coli Rosetta (DE3) cells assessed as change in enthalpy at 20 degreeC by reverse titration based isothermal titration calorimetry analysis
[5] = target: T2, Vascular endothelial growth factor A, long form (Homo sapiens); assay: Binding affinity to human VEGF (13 to 107 residues) expressed in Escherichia coli Rosetta (DE3) cells assessed as change in enthalpy at 20 degreeC by isothermal titration calorimetry analysis
[6] = target: T1, Vascular endothelial growth factor A, long form; assay: Binding affinity to human VEGF (13 to 107 residues) expressed in Escherichia coli Rosetta (DE3) cells assessed as dissociation constant at 37 degreeC by reverse titration based isothermal titration calorimetry analysis
[7] = target: T2, Vascular endothelial growth factor A, long form (Homo sapiens); assay: Binding affinity to human VEGF (13 to 107 residues) expressed in Escherichia coli Rosetta (DE3) cells assessed as Gibbs free energy change at 20 degreeC by isothermal titration calorimetry analysis
[8] = target: T1, Vascular endothelial growth factor A, long form; assay: Binding affinity to human VEGF (13 to 107 residues) expressed in Escherichia coli Rosetta (DE3) cells assessed as dissociation constant at 37 degreeC by direct titration based isothermal titration calorimetry analysis
[9] = target: T2, Vascular endothelial growth factor A, long form (Homo sapiens); assay: Binding affinity to human VEGF (13 to 107 residues) expressed in Escherichia coli Rosetta (DE3) cells assessed as change in entropy at 37 degreeC by direct titration based isothermal titration calorimetry analysis
[10] = target: T2, Vascular endothelial growth factor A, long form (Homo sapiens); assay: Binding affinity to human VEGF (13 to 107 residues) expressed in Escherichia coli Rosetta (DE3) cells assessed as change in enthalpy at 37 degreeC by reverse titration based isothermal titration calorimetry analysis
[11] = target: T1, Vascular endothelial growth factor A, long form; assay: Binding affinity to human VEGF (13 to 107 residues) expressed in Escherichia coli Rosetta (DE3) cells assessed as dissociation constant at 20 degreeC by direct titration based isothermal titration calorimetry analysis
[12] = target: T2, Vascular endothelial growth factor A, long form (Homo sapiens); assay: Binding affinity to human VEGF (13 to 107 residues) expressed in Escherichia coli Rosetta (DE3) cells assessed as change in enthalpy at 20 degreeC by direct titration based isothermal titration calorimetry analysis
[13] = target: T2, Vascular endothelial growth factor A, long form (Homo sapiens); assay: Binding affinity to human VEGF (13 to 107 residues) expressed in Escherichia coli Rosetta (DE3) cells assessed as change in entropy at 20 degreeC by reverse titration based isothermal titration calorimetry analysis
[14] = target: T2, Vascular endothelial growth factor A, long form (Homo sapiens); assay: Binding affinity to human VEGF (13 to 107 residues) expressed in Escherichia coli Rosetta (DE3) cells assessed as change in entropy at 20 degreeC by direct titration based isothermal titration calorimetry analysis
[15] = target: T2, Vascular endothelial growth factor A, long form (Homo sapiens); assay: Binding affinity to human VEGF (13 to 107 residues) expressed in Escherichia coli Rosetta (DE3) cells assessed as change in enthalpy at 37 degreeC by isothermal titration calorimetry analysis
HUVEC [16] = assay: Antiangiogenic activity in human HUVEC cells assessed as inhibition of VEGFA-induced cell migration incubated for 12 hrs by wound healing assay; format: functional, cell-based
[17] = target: T2, Vascular endothelial growth factor A, long form (Homo sapiens); assay: Binding affinity to human VEGF (13 to 107 residues) expressed in Escherichia coli Rosetta (DE3) cells assessed as change in heat capacity at 20 degreeC by isothermal titration calorimetry analysis
[18] = target: T2, Vascular endothelial growth factor A, long form (Homo sapiens); assay: Binding affinity to human VEGF (13 to 107 residues) expressed in Escherichia coli Rosetta (DE3) cells assessed as change in entropy at 20 degreeC by isothermal titration calorimetry analysis
[19] = target: T2, Vascular endothelial growth factor A, long form (Homo sapiens); assay: Binding affinity to human VEGF (13 to 107 residues) expressed in Escherichia coli Rosetta (DE3) cells assessed as Gibbs free energy change at 37 degreeC by isothermal titration calorimetry analysis
[20] = target: T2, Vascular endothelial growth factor A, long form (Homo sapiens); assay: Binding affinity to human VEGF (13 to 107 residues) expressed in Escherichia coli Rosetta (DE3) cells assessed as change in entropy at 37 degreeC by isothermal titration calorimetry analysis
[21] = target: T1, Vascular endothelial growth factor A, long form; assay: Binding affinity to human VEGF (13 to 107 residues) expressed in Escherichia coli Rosetta (DE3) cells assessed as dissociation constant at 20 degreeC by reverse titration based isothermal titration calorimetry analysis
HUVEC [22] = assay: Antiangiogenic activity in human HUVEC cells assessed as inhibition of VEGFA-induced capillary tube formation incubated for 6 hrs by matrigel based microscopic analysis; format: functional, cell-based
[23] = target: T2, Vascular endothelial growth factor A, long form (Homo sapiens); assay: Binding affinity to human VEGF (13 to 107 residues) expressed in Escherichia coli Rosetta (DE3) cells assessed as change in entropy at 37 degreeC by reverse titration based isothermal titration calorimetry analysis

Kd [1]: 26 nM | Kd [2]: 9 nM | deltaH [3]: -50.2 kcal/mol | deltaH [4]: -37.4 kcal/mol | deltaH [5]: -37.5 kcal/mol | Kd [6]: 14 nM | deltaG [7]: -10.8 kcal/mol | Kd [8]: 26 nM | deltaS [9]: -127 cal/mol.K | deltaH [10]: -50.6 kcal/mol | Kd [11]: 12 nM | deltaH [12]: -35.6 kcal/mol | deltaS [13]: -91.1 cal/mol.K | deltaS [14]: -95.4 cal/mol.K | deltaH [15]: -50.3 kcal/mol | DeltaCp [17]: -0.75 kcal/mol/K | -TdeltaS [18]: 26.7 kcal/mol | deltaG [19]: -10.8 kcal/mol | -TdeltaS [20]: 39.5 kcal/mol | Kd [21]: 11 nM | deltaS [23]: -127 cal/mol.K
SMILES: CC[C@H](C)[C@@H]1NC(=O)[C@H](CC(=O)O)NC(=O)[C@@H](NC(C)=O)CSSC[C@@H]2NC(=O)[C@H](CCCCNC(=O)C[C@@H](C(=O)N[C@@H](CC(C)C)C(N)=O)NC(=O)[C@H](CCC(=O)O)NC(=O)[C@H](Cc3ccccc3)NC2=O)NC(=O)[C@H](Cc2c[nH]c3ccccc23)NC(=O)[C@H](CCC(=O)O)NC(=O)[C@H](Cc2c[nH]c3ccccc23)NC(=O)[C@H](CCCCNC(=O)CCOCCOCCOCCOCCOCCOCCOCCOCCOCCOCCOCCOCCOCCOCCOCCOCCOCCOCCOCCOCCOCCOCCOCCOCCOCCC(=O)NCCCC[C@@H]2NC(=O)[C@H](C(C)C)NC(=O)[C@H](Cc3cnc[nH]3)NC(=O)[C@H]([C@@H](C)CC)NC(=O)[C@H](CC(=O)O)NC(=O)[C@@H](NC(C)=O)CSSC[C@@H]3NC(=O)[C@H](CCCCNC(=O)C[C@@H](C(=O)N[C@@H](CC(C)C)C(N)=O)NC(=O)[C@H](CCC(=O)O)NC(=O)[C@H](Cc4ccccc4)NC3=O)NC(=O)[C@H](Cc3c[nH]c4ccccc34)NC(=O)[C@H](CCC(=O)O)NC(=O)[C@H](Cc3c[nH]c4ccccc34)NC2=O)NC(=O)[C@H](C(C)C)NC(=O)[C@H](Cc2cnc[nH]2)NC1=O (I: Ac-CDIHVKWEWKCFEDL-NH2 / II: Ac-CDIHVKWEWKCFEDL-NH2; disulfide I:1-I:11, II:1-II:11; linker I:6-II:6 via X1; lactam I:10-I:14, II:10-II:14)
Activity (HUVEC [16]): Dose-Dependent Effect | Activity (HUVEC [22]): Dose-Dependent Effect
